Series [1] in a line: pharmacokinetics in monkey. To be noted: in vivo, po. The text has this: (§1) Exposure increased more than dose-proportionally at low doses. Variability in exposure was high. • In vitro plasma protein binding was between 79.6% and 94.2% in animals and humans. Volume of distribution after intravenous dosing was high. […] Main metabolic pathways were oxygenation, hydrogenation, dehydrogenation, dealkylation, acetylation, glucuronidation, and/or glutathione conjugation. • In rats, >80% of drug-related material was found in feces, 11% to 20% in bile, and <4% in urine. […] There were no effects on embryofetal development up to 1 mg/kg/dose in rats and 30 mg/kg/dose in rabbits.

The target of a further series is T1, human TLR7 (Homo sapiens, UniProt Q9NYK1).
T1 sequence (Q9NYK1 27-1049): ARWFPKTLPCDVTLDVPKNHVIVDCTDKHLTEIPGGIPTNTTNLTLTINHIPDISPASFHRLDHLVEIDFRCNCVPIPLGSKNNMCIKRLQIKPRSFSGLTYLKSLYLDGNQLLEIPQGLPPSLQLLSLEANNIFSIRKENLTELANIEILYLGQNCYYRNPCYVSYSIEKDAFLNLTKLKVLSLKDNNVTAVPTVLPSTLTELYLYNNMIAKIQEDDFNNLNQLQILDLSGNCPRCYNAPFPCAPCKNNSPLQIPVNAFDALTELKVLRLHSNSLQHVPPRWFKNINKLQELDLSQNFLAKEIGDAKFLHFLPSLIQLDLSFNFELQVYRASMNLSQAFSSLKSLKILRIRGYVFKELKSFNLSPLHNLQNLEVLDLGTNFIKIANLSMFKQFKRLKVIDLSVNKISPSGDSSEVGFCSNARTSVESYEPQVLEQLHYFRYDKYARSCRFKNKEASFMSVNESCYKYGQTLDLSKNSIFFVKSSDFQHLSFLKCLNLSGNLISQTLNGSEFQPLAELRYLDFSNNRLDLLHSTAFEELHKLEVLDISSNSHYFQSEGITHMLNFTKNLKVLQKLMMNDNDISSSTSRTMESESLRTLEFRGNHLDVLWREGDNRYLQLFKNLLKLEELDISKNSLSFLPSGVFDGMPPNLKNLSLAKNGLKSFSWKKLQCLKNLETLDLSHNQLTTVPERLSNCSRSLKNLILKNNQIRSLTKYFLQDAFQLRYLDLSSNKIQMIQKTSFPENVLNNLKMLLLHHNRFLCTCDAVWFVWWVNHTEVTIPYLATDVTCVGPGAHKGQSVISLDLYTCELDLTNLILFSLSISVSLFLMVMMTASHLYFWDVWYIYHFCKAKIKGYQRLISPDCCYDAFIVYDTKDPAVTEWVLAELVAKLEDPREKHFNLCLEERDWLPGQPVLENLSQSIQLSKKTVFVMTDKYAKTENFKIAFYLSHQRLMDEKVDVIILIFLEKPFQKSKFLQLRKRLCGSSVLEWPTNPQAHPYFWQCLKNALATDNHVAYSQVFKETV
As to the kind of experiment: activation of human TLR7 (LEC). Format: cell-based.

Another series concerns the target T2, monkey TLR7 (Macaca fascicularis, UniProt B3Y652).
T2 sequence (B3Y652 1-1049): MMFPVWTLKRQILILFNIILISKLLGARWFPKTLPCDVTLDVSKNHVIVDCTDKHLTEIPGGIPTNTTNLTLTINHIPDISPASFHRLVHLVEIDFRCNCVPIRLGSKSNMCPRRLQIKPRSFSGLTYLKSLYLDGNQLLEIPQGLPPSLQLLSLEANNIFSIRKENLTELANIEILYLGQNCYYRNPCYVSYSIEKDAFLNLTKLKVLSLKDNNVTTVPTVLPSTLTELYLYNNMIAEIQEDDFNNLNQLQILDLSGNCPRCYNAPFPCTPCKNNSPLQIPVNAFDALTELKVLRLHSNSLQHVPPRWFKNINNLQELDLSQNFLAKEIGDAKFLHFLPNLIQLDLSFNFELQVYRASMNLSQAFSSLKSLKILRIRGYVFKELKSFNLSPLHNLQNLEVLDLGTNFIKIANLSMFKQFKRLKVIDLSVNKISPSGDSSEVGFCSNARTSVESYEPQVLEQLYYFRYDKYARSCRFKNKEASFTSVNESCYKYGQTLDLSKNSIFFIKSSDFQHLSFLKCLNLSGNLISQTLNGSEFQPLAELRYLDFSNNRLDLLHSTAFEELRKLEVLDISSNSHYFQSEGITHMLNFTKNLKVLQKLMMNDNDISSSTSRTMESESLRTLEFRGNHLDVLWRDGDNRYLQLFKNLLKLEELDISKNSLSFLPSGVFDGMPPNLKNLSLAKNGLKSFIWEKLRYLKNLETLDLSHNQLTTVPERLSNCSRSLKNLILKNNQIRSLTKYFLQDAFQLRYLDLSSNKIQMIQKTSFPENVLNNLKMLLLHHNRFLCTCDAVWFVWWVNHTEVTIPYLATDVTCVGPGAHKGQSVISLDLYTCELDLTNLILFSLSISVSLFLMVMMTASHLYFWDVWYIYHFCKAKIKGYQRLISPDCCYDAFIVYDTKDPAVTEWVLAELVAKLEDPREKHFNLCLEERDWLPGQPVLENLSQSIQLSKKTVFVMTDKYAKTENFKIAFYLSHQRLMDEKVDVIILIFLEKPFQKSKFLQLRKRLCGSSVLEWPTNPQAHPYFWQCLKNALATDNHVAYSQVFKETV
As to the kind of experiment: activation of monkey TLR7 (LEC). The class given is cell-based.
Description: as §1

Series [2] in a line: pharmacokinetics and metabolism in animals. The class given is in vivo, rats and monkeys.
Description: as §1

The target in series [3] is T3, organic ion transporter 2 (OCT2) (Homo sapiens, UniProt O15244).
T3 sequence (O15244 1-555): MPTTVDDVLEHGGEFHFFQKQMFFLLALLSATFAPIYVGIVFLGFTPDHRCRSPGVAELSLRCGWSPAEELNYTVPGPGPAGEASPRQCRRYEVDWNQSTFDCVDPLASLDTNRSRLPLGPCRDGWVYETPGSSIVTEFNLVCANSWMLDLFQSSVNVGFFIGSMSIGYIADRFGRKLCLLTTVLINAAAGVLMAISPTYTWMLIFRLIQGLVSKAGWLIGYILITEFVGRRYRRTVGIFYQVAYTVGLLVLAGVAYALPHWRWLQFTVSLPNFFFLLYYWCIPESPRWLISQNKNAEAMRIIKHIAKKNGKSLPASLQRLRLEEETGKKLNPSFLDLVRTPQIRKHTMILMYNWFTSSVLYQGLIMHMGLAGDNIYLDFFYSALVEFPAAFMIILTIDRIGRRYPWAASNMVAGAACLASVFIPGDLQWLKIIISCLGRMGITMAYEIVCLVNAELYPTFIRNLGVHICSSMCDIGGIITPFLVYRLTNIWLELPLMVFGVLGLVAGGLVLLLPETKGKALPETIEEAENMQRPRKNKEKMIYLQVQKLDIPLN
The experiment in a line: OCT2 inhibition in vitro. Format: in vitro ADME.
Description: as §1

In general, bioavailability refers to dose-corrected exposure relative to a reference, in per cent. One may read the half-life as the time needed for the level to fall by half in the phase considered. By Tmax is commonly meant the time from dosing to the highest level. In general, IC50 refers to the point on the concentration scale where inhibition reaches its midpoint.

In series [1], `CCCCOc1nc(N)c2[nH]cc(Cc3ccc(CN4CCCC4)cc3)c2n1` [Compound 4] showed a bioavailability of 1.5%. For the same compound, the “lowest effective concentration (LEC) for activation of human TLR7” value at human TLR7 was 70 nM. Besides, the “lowest effective concentration (LEC) for activation of monkey TLR7” value at monkey TLR7 is reported as below 119 nM. In addition, the blood clearance entry in series [2] (in vivo) was “moderate”. For the same compound, the volume of distribution entry in series [2] (intravenous dosing) is “high”. Moreover, the tissue distribution result in series [2] (oral dosing in rats and monkeys) is “highest levels in liver, small intestines and brain”. In series [2] (rat, monkey, in vivo), this compound showed a half-life of 5 to 14 h. The time to peak (Tmax) in series [2] (rat, monkey, in vivo, oral dosing) lay in the range of 0.8 to 2 h. For the same compound, the IC50 in series [3] was 4.97 µM.

(Values after US12263172B2, “Toll-like receptor agonists for use in the treatment of hepatitis b” (priority 2019, dated 2025).)
